Source: the NIST ThermoML archive (doi:10.1016/j.tca.2006.01.013)
± gives the expanded uncertainty stated by the source.

Test: xn = mol fraction of the nth substance listed
Conditions: 101 kPa, Liquid, Vibrating tube method

## NCCN [ethane-1,2-diamine] + O
288.15 K, x2 = 0.0401
  mass density: 905.79 ± 0.45 kg/m3
288.15 K, x2 = 0.0797
  mass density: 909.79 ± 0.43 kg/m3
288.15 K, x2 = 0.1199
  mass density: 914.18 ± 0.42 kg/m3
288.15 K, x2 = 0.1598
  mass density: 918.88 ± 0.4 kg/m3
288.15 K, x2 = 0.2003
  mass density: 923.88 ± 0.38 kg/m3
288.15 K, x2 = 0.25
  mass density: 930.08 ± 0.36 kg/m3
288.15 K, x2 = 0.2999
  mass density: 936.78 ± 0.34 kg/m3
288.15 K, x2 = 0.3497
  mass density: 944.11 ± 0.32 kg/m3
288.15 K, x2 = 0.3998
  mass density: 951.74 ± 0.31 kg/m3
288.15 K, x2 = 0.4504
  mass density: 959.71 ± 0.29 kg/m3
288.15 K, x2 = 0.5001
  mass density: 967.93 ± 0.27 kg/m3
288.15 K, x2 = 0.5499
  mass density: 976.43 ± 0.24 kg/m3
288.15 K, x2 = 0.5998
  mass density: 984.56 ± 0.22 kg/m3
288.15 K, x2 = 0.6499
  mass density: 991.92 ± 0.19 kg/m3
288.15 K, x2 = 0.7004
  mass density: 998.03 ± 0.16 kg/m3
288.15 K, x2 = 0.7499
  mass density: 1001.68 ± 0.14 kg/m3
288.15 K, x2 = 0.8
  mass density: 1002.5 ± 0.12 kg/m3
288.15 K, x2 = 0.84
  mass density: 1001.38 ± 0.1 kg/m3
288.15 K, x2 = 0.88
  mass density: 999.21 ± 0.08 kg/m3
288.15 K, x2 = 0.9193
  mass density: 997.06 ± 0.07 kg/m3
288.15 K, x2 = 0.9599
  mass density: 996.39 ± 0.05 kg/m3
293.15 K, x2 = 0.0401
  mass density: 901.13 ± 0.45 kg/m3
293.15 K, x2 = 0.0797
  mass density: 905.15 ± 0.43 kg/m3
293.15 K, x2 = 0.1199
  mass density: 909.56 ± 0.42 kg/m3
293.15 K, x2 = 0.1598
  mass density: 914.28 ± 0.4 kg/m3
293.15 K, x2 = 0.2003
  mass density: 919.29 ± 0.38 kg/m3
293.15 K, x2 = 0.25
  mass density: 925.52 ± 0.36 kg/m3
293.15 K, x2 = 0.2999
  mass density: 932.23 ± 0.34 kg/m3
293.15 K, x2 = 0.3497
  mass density: 939.57 ± 0.32 kg/m3
293.15 K, x2 = 0.3998
  mass density: 947.2 ± 0.3 kg/m3
293.15 K, x2 = 0.4504
  mass density: 955.18 ± 0.29 kg/m3
293.15 K, x2 = 0.5001
  mass density: 963.41 ± 0.27 kg/m3
293.15 K, x2 = 0.5499
  mass density: 971.92 ± 0.24 kg/m3
293.15 K, x2 = 0.5998
  mass density: 980.1 ± 0.22 kg/m3
293.15 K, x2 = 0.6499
  mass density: 987.54 ± 0.19 kg/m3
293.15 K, x2 = 0.7004
  mass density: 993.83 ± 0.17 kg/m3
293.15 K, x2 = 0.7499
  mass density: 997.76 ± 0.14 kg/m3
293.15 K, x2 = 0.8
  mass density: 999 ± 0.12 kg/m3
293.15 K, x2 = 0.84
  mass density: 998.31 ± 0.1 kg/m3
293.15 K, x2 = 0.88
  mass density: 996.66 ± 0.08 kg/m3
293.15 K, x2 = 0.9193
  mass density: 995.08 ± 0.06 kg/m3
293.15 K, x2 = 0.9599
  mass density: 995.01 ± 0.05 kg/m3
298.15 K, x2 = 0.0401
  mass density: 896.45 ± 0.45 kg/m3
298.15 K, x2 = 0.0797
  mass density: 900.49 ± 0.43 kg/m3
298.15 K, x2 = 0.1199
  mass density: 904.92 ± 0.41 kg/m3
298.15 K, x2 = 0.1598
  mass density: 909.66 ± 0.4 kg/m3
298.15 K, x2 = 0.2003
  mass density: 914.69 ± 0.38 kg/m3
298.15 K, x2 = 0.25
  mass density: 920.93 ± 0.36 kg/m3
298.15 K, x2 = 0.2999
  mass density: 927.67 ± 0.34 kg/m3
298.15 K, x2 = 0.3497
  mass density: 935.02 ± 0.32 kg/m3
298.15 K, x2 = 0.3998
  mass density: 942.65 ± 0.3 kg/m3
298.15 K, x2 = 0.4504
  mass density: 950.64 ± 0.29 kg/m3
298.15 K, x2 = 0.5001
  mass density: 958.87 ± 0.27 kg/m3
298.15 K, x2 = 0.5499
  mass density: 967.39 ± 0.24 kg/m3
298.15 K, x2 = 0.5998
  mass density: 975.61 ± 0.22 kg/m3
298.15 K, x2 = 0.6499
  mass density: 983.14 ± 0.19 kg/m3
298.15 K, x2 = 0.7004
  mass density: 989.6 ± 0.17 kg/m3
298.15 K, x2 = 0.7499
  mass density: 993.81 ± 0.14 kg/m3
298.15 K, x2 = 0.8
  mass density: 995.45 ± 0.12 kg/m3
298.15 K, x2 = 0.84
  mass density: 995.17 ± 0.1 kg/m3
298.15 K, x2 = 0.88
  mass density: 994.01 ± 0.08 kg/m3
298.15 K, x2 = 0.9193
  mass density: 992.96 ± 0.07 kg/m3
298.15 K, x2 = 0.9599
  mass density: 993.42 ± 0.05 kg/m3
303.15 K, x2 = 0.0401
  mass density: 891.76 ± 0.44 kg/m3
303.15 K, x2 = 0.0797
  mass density: 895.82 ± 0.43 kg/m3
303.15 K, x2 = 0.1199
  mass density: 900.27 ± 0.41 kg/m3
303.15 K, x2 = 0.1598
  mass density: 905.03 ± 0.4 kg/m3
303.15 K, x2 = 0.2003
  mass density: 910.07 ± 0.38 kg/m3
303.15 K, x2 = 0.25
  mass density: 916.33 ± 0.36 kg/m3
303.15 K, x2 = 0.2999
  mass density: 923.08 ± 0.34 kg/m3
303.15 K, x2 = 0.3497
  mass density: 930.44 ± 0.32 kg/m3
303.15 K, x2 = 0.3998
  mass density: 938.08 ± 0.3 kg/m3
303.15 K, x2 = 0.4504
  mass density: 946.07 ± 0.28 kg/m3
303.15 K, x2 = 0.5001
  mass density: 954.3 ± 0.27 kg/m3
303.15 K, x2 = 0.5499
  mass density: 962.83 ± 0.24 kg/m3
303.15 K, x2 = 0.5998
  mass density: 971.09 ± 0.22 kg/m3
303.15 K, x2 = 0.6499
  mass density: 978.72 ± 0.19 kg/m3
303.15 K, x2 = 0.7004
  mass density: 985.34 ± 0.17 kg/m3
303.15 K, x2 = 0.7499
  mass density: 989.81 ± 0.14 kg/m3
303.15 K, x2 = 0.8
  mass density: 991.83 ± 0.12 kg/m3
303.15 K, x2 = 0.84
  mass density: 991.96 ± 0.1 kg/m3
303.15 K, x2 = 0.88
  mass density: 991.27 ± 0.08 kg/m3
303.15 K, x2 = 0.9193
  mass density: 990.71 ± 0.07 kg/m3
303.15 K, x2 = 0.9599
  mass density: 991.65 ± 0.05 kg/m3
308.15 K, x2 = 0.0401
  mass density: 887.06 ± 0.44 kg/m3
308.15 K, x2 = 0.0797
  mass density: 891.14 ± 0.43 kg/m3
308.15 K, x2 = 0.1199
  mass density: 895.6 ± 0.41 kg/m3
308.15 K, x2 = 0.1598
  mass density: 900.38 ± 0.4 kg/m3
308.15 K, x2 = 0.2003
  mass density: 905.43 ± 0.38 kg/m3
308.15 K, x2 = 0.25
  mass density: 911.71 ± 0.36 kg/m3
308.15 K, x2 = 0.2999
  mass density: 918.47 ± 0.34 kg/m3
308.15 K, x2 = 0.3497
  mass density: 925.84 ± 0.32 kg/m3
308.15 K, x2 = 0.3998
  mass density: 933.48 ± 0.3 kg/m3
308.15 K, x2 = 0.4504
  mass density: 941.48 ± 0.28 kg/m3
308.15 K, x2 = 0.5001
  mass density: 949.72 ± 0.27 kg/m3
308.15 K, x2 = 0.5499
  mass density: 958.26 ± 0.24 kg/m3
308.15 K, x2 = 0.5998
  mass density: 966.55 ± 0.22 kg/m3
308.15 K, x2 = 0.6499
  mass density: 974.26 ± 0.19 kg/m3
308.15 K, x2 = 0.7004
  mass density: 981.04 ± 0.17 kg/m3
308.15 K, x2 = 0.7499
  mass density: 985.76 ± 0.14 kg/m3
308.15 K, x2 = 0.8
  mass density: 988.16 ± 0.12 kg/m3
308.15 K, x2 = 0.84
  mass density: 988.67 ± 0.1 kg/m3
308.15 K, x2 = 0.88
  mass density: 988.42 ± 0.08 kg/m3
308.15 K, x2 = 0.9193
  mass density: 988.32 ± 0.07 kg/m3
308.15 K, x2 = 0.9599
  mass density: 989.7 ± 0.05 kg/m3
313.15 K, x2 = 0.0401
  mass density: 882.34 ± 0.44 kg/m3
313.15 K, x2 = 0.0797
  mass density: 886.43 ± 0.43 kg/m3
313.15 K, x2 = 0.1199
  mass density: 890.91 ± 0.41 kg/m3
313.15 K, x2 = 0.1598
  mass density: 895.71 ± 0.39 kg/m3
313.15 K, x2 = 0.2003
  mass density: 900.77 ± 0.38 kg/m3
313.15 K, x2 = 0.25
  mass density: 907.07 ± 0.36 kg/m3
313.15 K, x2 = 0.2999
  mass density: 913.84 ± 0.34 kg/m3
313.15 K, x2 = 0.3497
  mass density: 921.21 ± 0.32 kg/m3
313.15 K, x2 = 0.3998
  mass density: 928.86 ± 0.3 kg/m3
313.15 K, x2 = 0.4504
  mass density: 936.86 ± 0.28 kg/m3
313.15 K, x2 = 0.5001
  mass density: 945.1 ± 0.27 kg/m3
313.15 K, x2 = 0.5499
  mass density: 953.66 ± 0.24 kg/m3
313.15 K, x2 = 0.5998
  mass density: 961.99 ± 0.22 kg/m3
313.15 K, x2 = 0.6499
  mass density: 969.77 ± 0.19 kg/m3
313.15 K, x2 = 0.7004
  mass density: 976.7 ± 0.17 kg/m3
313.15 K, x2 = 0.7499
  mass density: 981.67 ± 0.14 kg/m3
313.15 K, x2 = 0.8
  mass density: 984.43 ± 0.12 kg/m3
313.15 K, x2 = 0.84
  mass density: 985.31 ± 0.1 kg/m3
313.15 K, x2 = 0.88
  mass density: 985.47 ± 0.08 kg/m3
313.15 K, x2 = 0.9193
  mass density: 985.81 ± 0.07 kg/m3
313.15 K, x2 = 0.9599
  mass density: 987.59 ± 0.06 kg/m3
318.15 K, x2 = 0.0401
  mass density: 877.6 ± 0.44 kg/m3
318.15 K, x2 = 0.0797
  mass density: 881.71 ± 0.42 kg/m3
318.15 K, x2 = 0.1199
  mass density: 886.2 ± 0.41 kg/m3
318.15 K, x2 = 0.1598
  mass density: 891.01 ± 0.39 kg/m3
318.15 K, x2 = 0.2003
  mass density: 896.09 ± 0.38 kg/m3
318.15 K, x2 = 0.25
  mass density: 902.4 ± 0.36 kg/m3
318.15 K, x2 = 0.2999
  mass density: 909.18 ± 0.34 kg/m3
318.15 K, x2 = 0.3497
  mass density: 916.56 ± 0.32 kg/m3
318.15 K, x2 = 0.3998
  mass density: 924.21 ± 0.3 kg/m3
318.15 K, x2 = 0.4504
  mass density: 932.22 ± 0.28 kg/m3
318.15 K, x2 = 0.5001
  mass density: 940.46 ± 0.27 kg/m3
318.15 K, x2 = 0.5499
  mass density: 949.04 ± 0.24 kg/m3
318.15 K, x2 = 0.5998
  mass density: 957.4 ± 0.22 kg/m3
318.15 K, x2 = 0.6499
  mass density: 965.25 ± 0.19 kg/m3
318.15 K, x2 = 0.7004
  mass density: 972.33 ± 0.17 kg/m3
318.15 K, x2 = 0.7499
  mass density: 977.53 ± 0.14 kg/m3
318.15 K, x2 = 0.8
  mass density: 980.63 ± 0.12 kg/m3
318.15 K, x2 = 0.84
  mass density: 981.87 ± 0.1 kg/m3
318.15 K, x2 = 0.88
  mass density: 982.43 ± 0.09 kg/m3
318.15 K, x2 = 0.9193
  mass density: 983.17 ± 0.07 kg/m3
318.15 K, x2 = 0.9599
  mass density: 985.32 ± 0.06 kg/m3
